Test results reported in PubChem BioAssay AID1033 (Sanford-Burnham Center for Chemical Genomics, 2008).
The source made the active and inactive calls. No rule for the calls is given here.

Biological target: Chaperone protein DnaK (Escherichia coli (strain K12)) (UniProt P0A6Y8)
Assay: E. coli DnaK SBD ligand binding – biophysical, NMR, chaperone (AID 1033)
Conditions: Purified DnaK SBD

Sequence of Chaperone protein DnaK (Escherichia coli (strain K12)) (P0A6Y8 whole entry, looked up): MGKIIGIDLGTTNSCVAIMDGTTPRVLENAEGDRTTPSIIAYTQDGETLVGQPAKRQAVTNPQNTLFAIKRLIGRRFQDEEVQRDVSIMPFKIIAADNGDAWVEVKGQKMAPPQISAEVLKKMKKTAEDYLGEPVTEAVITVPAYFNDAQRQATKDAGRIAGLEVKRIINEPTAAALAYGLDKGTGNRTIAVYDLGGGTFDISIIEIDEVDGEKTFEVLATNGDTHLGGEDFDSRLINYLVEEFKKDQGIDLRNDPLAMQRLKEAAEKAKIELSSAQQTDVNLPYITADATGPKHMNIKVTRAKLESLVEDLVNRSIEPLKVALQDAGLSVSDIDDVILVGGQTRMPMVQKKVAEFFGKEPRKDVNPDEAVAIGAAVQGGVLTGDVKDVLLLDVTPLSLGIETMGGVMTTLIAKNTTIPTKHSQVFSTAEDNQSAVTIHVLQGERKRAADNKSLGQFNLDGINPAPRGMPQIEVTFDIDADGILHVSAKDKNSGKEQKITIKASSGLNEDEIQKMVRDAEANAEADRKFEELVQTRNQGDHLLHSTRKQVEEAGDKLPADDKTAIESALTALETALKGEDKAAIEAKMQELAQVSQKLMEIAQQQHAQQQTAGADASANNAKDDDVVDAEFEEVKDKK

O=C(O[C@@H]1Cc2c(O)cc(O)cc2O[C@@H]1c1ccc(O)c(O)c1)c1cc(O)c(O)c(O)c1
Kd: > 4 mM (inactive)

Oc1ccc2c(c1)OCO2
Kd: > 4 mM (inactive)

NC(=O)c1cccnc1Oc1ccccc1
Kd: > 4 mM (inactive)

Cc1ccc(N2NC(=O)CC2=O)cc1C
Kd: > 4 mM (inactive)

Cc1cc(C)cc(C(=O)N2CCC(C(N)=O)CC2)c1
Kd: > 4 mM (inactive)

CN(C)C(=O)Oc1cccc(-c2nnco2)c1
Kd: > 4 mM (inactive)

Nc1ncnc(Cl)c1[N+](=O)[O-]
Kd: > 4 mM (inactive)

CC(=O)Nc1sc(C)c(C)c1C(N)=O
Kd: > 4 mM (inactive)

O=C(O)C1(S(=O)(=O)c2ccccc2)CC1
Kd: > 4 mM (inactive)

O=C1CSC(=Nc2ccc(F)cc2)N1
Kd: > 4 mM (inactive)

Cc1nnc(SCc2ccccc2)[nH]c1=O
Kd: > 4 mM (inactive)

COC(=O)c1c(OC)cc2c(c1C)Oc1c(Cl)c(OC(C)=O)c(Cl)c(C)c1C(=O)O2
Kd: > 4 mM (inactive)

CS(=O)(=O)N/N=C/c1cccs1
Kd: > 4 mM (inactive)

Nc1ncnc2nc(SCCN3CCCCC3)[nH]c12
Kd: > 4 mM (inactive)

NC(=O)CSc1nnc2ccc3ccccc3n12
Kd: > 4 mM (inactive)

Cn1nc(C(=O)N2CCCC2)c2ccccc2c1=O
Kd: > 4 mM (inactive)

COC(=O)c1c(OC)cc2c(c1C)Oc1c(Cl)c(O)c(Cl)c(C)c1C(=O)O2
Kd: > 4 mM (inactive)

Nc1ccn(C2O[C@H](CO)[C@@H](O)[C@H]2O)c(=O)n1 (some centres undefined)
Kd: > 4 mM (inactive)

Nc1nc2[nH]c(=O)c(=O)[nH]c2c(=O)[nH]1
Kd: > 4 mM (inactive)

Cc1ccc(/C=C/C(=O)O)cc1S(=O)(=O)NCCO
Kd: > 4 mM (inactive)

COC(=O)NCc1cc2cc(Cl)ccc2[nH]1
Kd: > 4 mM (inactive)

O=c1c2ccccc2[nH]c2ncccc12
Kd: > 4 mM (inactive)

CC(C)c1nnc(N)s1
Kd: > 4 mM (inactive)

CC(CCC(=O)O)[C@H]1CCC2C3CC[C@@H]4CCCC[C@]4(C)C3CC[C@@]21C (some centres undefined)
Kd: > 4 mM (inactive)

Cc1cc(C)n(-c2cccc3cccnc23)n1
Kd: > 4 mM (inactive)

Cc1ccc2c(c1)=C(c1sc(N)nc1O)C(=O)N=2
Kd: > 4 mM (inactive)

O=C(O)CC1Sc2ccccc2NC1=O (centres undefined)
Kd: > 4 mM (inactive)

Nc1cc(=O)[nH]c(SCC(=O)NC2CCCCC2)n1
Kd: > 4 mM (inactive)

Cc1ccc(-c2nn3c(C)nnc3s2)cc1N
Kd: > 4 mM (inactive)

Cc1c(C(=O)Nc2ccncc2)oc2c1C(=O)CC(C)(C)C2
Kd: > 4 mM (inactive)

COc1cc2c3cc1Oc1c(OC)c(OC)cc4c1[C@@H](Cc1cccc(c1)Oc1ccc(c(O)c1)C[C@@H]3N(C)CC2)N(C)CC4
Kd: > 4 mM (inactive)

CC(C)CC(=O)NC1CCSC1=O (centres undefined)
Kd: > 4 mM (inactive)

NC(=O)CN1CCCCCC1=O
Kd: > 4 mM (inactive)

Cn1cnnc1SCC(=O)Nc1nccs1
Kd: > 4 mM (inactive)

CC1=CC(=O)C2C(C)(C)CCC[C@]2(C)[C@@]1(O)CCc1ccoc1 (some centres undefined)
Kd: > 4 mM (inactive)

CN1CCC(N(C)Cc2cccnc2)CC1
Kd: > 4 mM (inactive)

O=S1(=O)CCC(Nc2ccccc2)C1 (centres undefined)
Kd: > 4 mM (inactive)

CC(=O)NC(=S)Nc1ccc(N(C)C(C)=O)cc1
Kd: > 4 mM (inactive)

CCOC(=O)c1snnc1-c1ccccc1
Kd: > 4 mM (inactive)

CC(=O)O[C@@H]1CC2C(C)(C)[C@H](O)C=C[C@]2(C)C2CC[C@@]3(C)[C@H](c4ccoc4)OC(=O)C4OC43[C@@]21C (some centres undefined)
Kd: > 4 mM (inactive)

Cc1ccc(SCCN2C(=O)NC(C)(C)C2=O)cc1
Kd: > 4 mM (inactive)

O=c1c2ccccc2ncn1C1CCCCC1
Kd: > 4 mM (inactive)

COC(=O)CSc1nnc(-c2ccc(C(=O)O)cc2)o1
Kd: > 4 mM (inactive)

O=C(Oc1ccc2c(c1)OCC2=O)c1ccccc1
Kd: > 4 mM (inactive)

COc1cccc(-c2nn(-c3ccccc3)cc2CO)c1
Kd: > 4 mM (inactive)

CN1CCN(C(=O)c2ccccc2N)CC1
Kd: > 4 mM (inactive)

COc1cc([C@@H]2c3cc4c(cc3[C@H](O)[C@H]3COC(=O)[C@H]23)OCO4)cc(OC)c1OC
Kd: > 4 mM (inactive)

Cc1nn(C)c(Cl)c1C(O)c1c(C)nn(C)c1Cl
Kd: > 4 mM (inactive)

O=C(NCN1CCOCC1)c1cccnc1
Kd: > 4 mM (inactive)

COc1cc([C@@H]2c3cc4c(cc3C(OC3O[C@@H]5COC(C)O[C@H]5[C@H](O)[C@H]3O)C3COC(=O)[C@@H]32)OCO4)cc(OC)c1O (some centres undefined)
Kd: > 4 mM (inactive)

Cc1sc2nc(-c3ccco3)oc(=O)c2c1C
Kd: > 4 mM (inactive)

Cc1c(-c2ccccc2)[n+](=O)c(-c2ccco2)c(C)n1[O-]
Kd: > 4 mM (inactive)

CCN1CCC(NC2CCCCNC2=O)CC1 (centres undefined)
Kd: > 4 mM (inactive)

Nc1n[nH]c(=S)n1-c1ccccc1
Kd: > 4 mM (inactive)

Clc1ccc(-n2ccnc2)nn1
Kd: > 4 mM (inactive)

CCCNC(=O)CSc1ncccc1C(=O)O
Kd: > 4 mM (inactive)

O=C1NC(=O)C(=Cc2cccs2)C(=O)N1
Kd: > 4 mM (inactive)

CCn1c(C)c(C(C)=O)c(N2CCN(C)CC2)nc1=S
Kd: > 4 mM (inactive)

COc1ccccc1NC(=O)C1CCCCC1
Kd: > 4 mM (inactive)

Cn1c(=O)n(C)c2nc([N+](=O)[O-])c(Cl)cc21
Kd: > 4 mM (inactive)

CNC(=S)NCCN1CCOCC1
Kd: > 4 mM (inactive)

Cc1ccccc1NC(=O)c1ocnc1C
Kd: > 4 mM (inactive)

Cc1n[nH]c(=O)nc1N1CCN(c2ccccc2)CC1
Kd: > 4 mM (inactive)

Nc1cc(=O)[nH]c(=S)n1-c1ccc(F)cc1
Kd: > 4 mM (inactive)

O=C(CSc1ncccn1)NCc1ccco1
Kd: > 4 mM (inactive)

O=C(Nn1cnnc1)c1csc2ccccc12
Kd: > 4 mM (inactive)

CNC(=O)c1cc(C)c(-c2ccccc2)s1
Kd: > 4 mM (inactive)

CN1C(=O)N(C)C2NC(=O)NC21 (centres undefined)
Kd: > 4 mM (inactive)

O=C(O)c1cncc(-c2cccs2)c1
Kd: > 4 mM (inactive)

CC1(c2ccncc2)NC(=O)NC1=O (centres undefined)
Kd: > 4 mM (inactive)

O=C(O)c1cccc(-n2cccc2)c1
Kd: > 4 mM (inactive)

c1ccc2[nH]c(SCc3cscn3)nc2c1
Kd: > 4 mM (inactive)

Nc1c(C(=O)O)sc2ncccc12
Kd: > 4 mM (inactive)

O=C(c1ccc(F)cc1)N1CCN(c2ncccn2)CC1
Kd: > 4 mM (inactive)

Nc1nonc1-c1nc2ccccc2[nH]1
Kd: > 4 mM (inactive)

CC1(C)SCC(C(=O)O)N1C=O (centres undefined)
Kd: > 4 mM (inactive)

N[C@@H](CCC(=O)N[C@@H](CS)C(=O)NCC(=O)O)C(=O)O
Kd: > 4 mM (inactive)

Cc1cccn2cc(CNc3ccccc3)nc12
Kd: > 4 mM (inactive)

Cn1nnc2cc(C(=O)O)ccc21
Kd: > 4 mM (inactive)

CCC(C)C(=O)c1c(O)c(C)c2oc3c(C)c(O)c(C(=O)C(C)CC)c(O)c3c2c1O (centres undefined)
Kd: > 4 mM (inactive)

Cc1occc1C(=O)NCc1ccccc1F
Kd: > 4 mM (inactive)

COC(=O)c1[nH]c2ccccc2c1C(=O)OC
Kd: > 4 mM (inactive)

O=C1NC(=O)C(C(C[N+](=O)[O-])c2ccc(O)cc2)C(=O)N1 (centres undefined)
Kd: > 4 mM (inactive)

O=c1[nH]nnc2sc3c(c12)CCCC3
Kd: > 4 mM (inactive)

COc1ccccc1NC(=O)c1cc[n+]([O-])cc1
Kd: > 4 mM (inactive)

COc1cc(O)c2c(=O)c(O)c(-c3ccc(O)c(O)c3)oc2c1
Kd: > 4 mM (inactive)

Cc1cc(C)nc(/N=C(/N)N2CCN(C)CC2)n1
Kd: > 4 mM (inactive)

O=C(O)/C=C/C=C/c1ccccc1
Kd: > 4 mM (inactive)

S=C(c1cccnc1)N1CCOCC1
Kd: > 4 mM (inactive)

NC(=O)CN1CC(=O)NC(=O)C1
Kd: > 4 mM (inactive)

Cc1cccc(-n2c(N)cc(=O)[nH]c2=S)c1C
Kd: > 4 mM (inactive)

O=C(c1cnsn1)N1CCN(c2ccccn2)CC1
Kd: > 4 mM (inactive)

N=C1/C(=C\c2ccco2)C(=O)N=C2SC=NN12
Kd: > 4 mM (inactive)

CCc1nnsc1C(=O)Nc1nccs1
Kd: > 4 mM (inactive)

O=S1(=O)NC(=NCc2ccco2)c2ccccc21
Kd: > 4 mM (inactive)

CCn1nnc2c(NCc3ccccn3)ncnc21
Kd: > 4 mM (inactive)

CN1CCC2(CC1)CC1CC3C=CC1(CN2)O3 (centres undefined)
Kd: > 4 mM (inactive)

COc1cc2c(cc1OC)[C@@H]1C(=O)c3ccc(OC)c(CC=C(C)C)c3O[C@@H]1CO2
Kd: > 4 mM (inactive)

Nc1ccc(S(=O)(=O)N2CCCCC2)cc1
Kd: > 4 mM (inactive)

CC1(C)C2CC(=O)[C@]3(C)C(CC[C@@]4(C)[C@H](c5ccoc5)OC(=O)[C@H]5O[C@]543)[C@@]2(C)C(=O)C[C@H]1O (some centres undefined)
Kd: > 4 mM (inactive)

NC(=O)NC(=O)Nc1ccc(Cl)cc1
Kd: > 4 mM (inactive)

NC(=O)c1ccsc1NC(=O)C1=COCCO1
Kd: > 4 mM (inactive)

O=C(Nc1ccc2c(c1)OCCO2)c1c(F)cccc1F
Kd: > 4 mM (inactive)

Cc1occc1C(=O)Nc1sccc1C(N)=O
Kd: > 4 mM (inactive)

O=C(O)CCC(=O)c1cccc2ccccc12
Kd: > 4 mM (inactive)

Cc1nn2c(nc1=O)SCC2(O)c1ccccc1 (centres undefined)
Kd: > 4 mM (inactive)

COc1ccc(C2(C)NC(=O)NC2=O)cc1 (centres undefined)
Kd: > 4 mM (inactive)

NC(=O)c1ccc(NC(=O)C2CC2)cc1
Kd: > 4 mM (inactive)

COc1cnn(-c2ccccc2)c(=O)c1N(C)C
Kd: > 4 mM (inactive)

Cc1ccnc(NS(=O)(=O)c2ccccc2)n1
Kd: > 4 mM (inactive)

Cc1onc(-c2c(F)cccc2Cl)c1C(N)=O
Kd: > 4 mM (inactive)

O=C(Nc1ccc(F)cc1F)c1ccco1
Kd: > 4 mM (inactive)

CC(=O)Nc1ccc(C(=O)NC2=NCCS2)cc1
Kd: > 4 mM (inactive)

Cc1noc(C)c1C(=O)Nc1ccccc1-c1ccccc1
Kd: > 4 mM (inactive)

CC1(C)CC2C1CCC1(C)OC2(C)CCC1O (centres undefined)
Kd: > 4 mM (inactive)

CSc1nnc2c(n1)OC(C)=Nc1ccccc1-2
Kd: > 4 mM (inactive)

CC(=O)Nc1ccc(NC(C)=O)cc1
Kd: > 4 mM (inactive)

COC(=O)c1c(C)cc(OC)cc1O
Kd: > 4 mM (inactive)

c1ccc2c(c1)nnn2C1CCNCC1
Kd: > 4 mM (inactive)
